Test results as given in ChEMBL document CHEMBL6071184, “Lasamide, a Potent Human Carbonic Anhydrase Inhibitor from the Market: Inhibition Profiling and Crystallographic Studies” (ACS Med Chem Lett, 2024).

Assays:
[1] = molecular target: Carbonic anhydrase 5B, mitochondrial (Homo sapiens, UniProt Q9Y2D0); assay: Inhibition of full-length recombinant human CA VB-catalysed CO2 hydration by stopped-flow technique
[2] = molecular target: T1, Carbonic anhydrase 6 (Homo sapiens, UniProt P23280)
Description: Inhibition of full-length recombinant human milk CA VI-catalysed CO2 hydration by stopped-flow technique

[3] = molecular target: Carbonic anhydrase 7 (Homo sapiens, UniProt P43166)
Carbonic anhydrase 7, sequence (P43166 whole entry): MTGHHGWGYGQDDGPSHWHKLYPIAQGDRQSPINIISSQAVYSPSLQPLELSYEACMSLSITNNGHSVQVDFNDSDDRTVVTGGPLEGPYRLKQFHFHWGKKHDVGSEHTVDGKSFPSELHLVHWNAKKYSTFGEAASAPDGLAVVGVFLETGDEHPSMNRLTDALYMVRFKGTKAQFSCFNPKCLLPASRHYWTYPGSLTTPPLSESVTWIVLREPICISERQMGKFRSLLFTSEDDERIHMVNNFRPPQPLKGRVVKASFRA
Description: Inhibition of full-length recombinant human CA VII-catalysed CO2 hydration by stopped-flow technique

[4] = molecular target: T1, Carbonic anhydrase 6; remark: listed apart in the source
Description: Inhibition of full-length recombinant human saliva CA VI-catalysed CO2 hydration by stopped-flow technique

[5] = molecular target: Carbonic anhydrase 14 (Homo sapiens, UniProt Q9ULX7); assay: Inhibition of full-length recombinant human CA XIV-catalysed CO2 hydration by stopped-flow technique
Carbonic anhydrase 14, sequence (Q9ULX7 whole entry): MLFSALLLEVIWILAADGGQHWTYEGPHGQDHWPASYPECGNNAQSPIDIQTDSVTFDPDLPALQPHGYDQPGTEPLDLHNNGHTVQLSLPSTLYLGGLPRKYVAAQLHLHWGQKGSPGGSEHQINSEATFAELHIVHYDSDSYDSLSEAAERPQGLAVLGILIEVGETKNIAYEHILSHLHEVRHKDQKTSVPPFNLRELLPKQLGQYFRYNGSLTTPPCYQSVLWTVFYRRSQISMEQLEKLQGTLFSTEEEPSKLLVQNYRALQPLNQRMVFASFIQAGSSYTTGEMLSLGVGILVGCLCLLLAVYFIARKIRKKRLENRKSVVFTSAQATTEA

[6] = molecular target: Carbonic anhydrase 3 (Homo sapiens, UniProt P07451)
Carbonic anhydrase 3, sequence (P07451 whole entry): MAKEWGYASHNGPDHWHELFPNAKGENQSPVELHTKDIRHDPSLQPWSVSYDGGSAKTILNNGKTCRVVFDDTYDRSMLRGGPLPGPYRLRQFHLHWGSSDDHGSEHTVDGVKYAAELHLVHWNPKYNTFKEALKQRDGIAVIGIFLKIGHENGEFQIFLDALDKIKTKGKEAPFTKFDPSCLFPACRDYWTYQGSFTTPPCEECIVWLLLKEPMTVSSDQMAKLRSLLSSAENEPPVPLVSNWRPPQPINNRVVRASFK
Description: Inhibition of full-length recombinant human CA III-catalysed CO2 hydration by stopped-flow technique

[7] = molecular target: Carbonic anhydrase 5A, mitochondrial (Homo sapiens, UniProt P35218)
Carbonic anhydrase 5A, mitochondrial, sequence (P35218 whole entry): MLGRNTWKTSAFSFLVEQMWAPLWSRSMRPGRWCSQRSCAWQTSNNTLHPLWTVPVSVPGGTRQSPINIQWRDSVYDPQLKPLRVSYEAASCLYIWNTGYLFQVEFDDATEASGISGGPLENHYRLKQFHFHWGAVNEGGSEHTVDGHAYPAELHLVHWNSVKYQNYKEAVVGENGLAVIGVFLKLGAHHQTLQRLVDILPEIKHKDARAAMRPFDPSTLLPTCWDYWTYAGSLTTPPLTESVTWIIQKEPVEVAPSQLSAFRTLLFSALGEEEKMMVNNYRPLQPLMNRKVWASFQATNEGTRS
Description: Inhibition of full-length recombinant human CA VA-catalysed CO2 hydration by stopped-flow technique

[8] = molecular target: Carbonic anhydrase 4 (Homo sapiens, UniProt P22748); assay: Inhibition of full-length recombinant human CA IV-catalysed CO2 hydration by stopped-flow technique
Carbonic anhydrase 4, sequence (P22748 whole entry): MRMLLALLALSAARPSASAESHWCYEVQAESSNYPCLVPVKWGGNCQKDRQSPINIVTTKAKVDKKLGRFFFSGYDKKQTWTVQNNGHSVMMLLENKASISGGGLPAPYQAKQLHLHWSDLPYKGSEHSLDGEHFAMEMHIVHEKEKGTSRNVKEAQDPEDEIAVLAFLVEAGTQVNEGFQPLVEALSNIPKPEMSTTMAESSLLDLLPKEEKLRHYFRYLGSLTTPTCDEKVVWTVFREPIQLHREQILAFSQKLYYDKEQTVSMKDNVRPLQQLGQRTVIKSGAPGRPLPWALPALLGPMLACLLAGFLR

[9] = molecular target: Carbonic anhydrase 13 (Mus musculus, UniProt Q9D6N1); assay: Inhibition of mouse CA XIII-catalysed CO2 hydration by stopped-flow technique
Carbonic anhydrase 13, sequence (Q9D6N1 whole entry): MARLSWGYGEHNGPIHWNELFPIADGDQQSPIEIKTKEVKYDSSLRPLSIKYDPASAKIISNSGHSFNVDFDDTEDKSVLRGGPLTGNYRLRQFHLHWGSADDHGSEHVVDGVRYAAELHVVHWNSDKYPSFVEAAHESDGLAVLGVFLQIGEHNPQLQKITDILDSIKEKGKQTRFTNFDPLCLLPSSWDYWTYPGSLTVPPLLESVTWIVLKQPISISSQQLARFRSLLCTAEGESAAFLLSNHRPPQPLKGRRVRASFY

T1 sequence (P23280 whole entry): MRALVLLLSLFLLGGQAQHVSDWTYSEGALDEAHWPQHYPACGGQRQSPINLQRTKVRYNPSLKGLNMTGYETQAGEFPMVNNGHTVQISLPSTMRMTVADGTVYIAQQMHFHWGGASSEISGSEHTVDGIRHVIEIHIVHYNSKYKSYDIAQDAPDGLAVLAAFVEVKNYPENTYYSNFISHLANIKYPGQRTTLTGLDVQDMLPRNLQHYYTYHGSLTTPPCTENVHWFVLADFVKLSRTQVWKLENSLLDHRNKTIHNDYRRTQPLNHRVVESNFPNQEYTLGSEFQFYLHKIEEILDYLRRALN
Carbonic anhydrase 5B, mitochondrial, sequence (Q9Y2D0 whole entry): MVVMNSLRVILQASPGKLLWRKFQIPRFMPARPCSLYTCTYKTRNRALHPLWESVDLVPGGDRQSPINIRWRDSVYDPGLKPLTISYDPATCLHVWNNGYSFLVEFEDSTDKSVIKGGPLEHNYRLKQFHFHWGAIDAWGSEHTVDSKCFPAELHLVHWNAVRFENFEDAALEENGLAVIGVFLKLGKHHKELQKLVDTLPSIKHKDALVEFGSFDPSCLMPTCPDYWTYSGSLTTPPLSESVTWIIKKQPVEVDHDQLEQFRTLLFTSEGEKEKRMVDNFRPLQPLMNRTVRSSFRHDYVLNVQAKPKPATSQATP

- Ki [1]: 14.2 nM
- Ki [2]: 8.51 nM
- Ki [3]: 6.63 nM
- Ki [4]: 11.7 nM
- Ki [5]: 11.9 nM
- Ki [6]: > 50000 nM
- Ki [7]: 3.49 nM
- Ki [8]: 1.91 nM
- Ki [9]: 9.37 nM
Compound: NS(=O)(=O)c1cc(C(=O)O)c(Cl)cc1Cl
